Structures can show the parent of a compound that is named as a salt.
Columns and labels:
Format in all cases: biochemical
[1] = target: T1, recombinant human DAO (diamine oxidase) (Homo sapiens, UniProt P19801); assay: Activity on recombinant human DAO, Amplex Red method, 1 mM putrescine substrate; conditions: recombinant human DAO, 1 mM putrescine substrate; read-out: Inhibitory Activity (IC50, nM) DAO
T1 construct: purchased R&D systems
T1 sequence (P19801 20-751): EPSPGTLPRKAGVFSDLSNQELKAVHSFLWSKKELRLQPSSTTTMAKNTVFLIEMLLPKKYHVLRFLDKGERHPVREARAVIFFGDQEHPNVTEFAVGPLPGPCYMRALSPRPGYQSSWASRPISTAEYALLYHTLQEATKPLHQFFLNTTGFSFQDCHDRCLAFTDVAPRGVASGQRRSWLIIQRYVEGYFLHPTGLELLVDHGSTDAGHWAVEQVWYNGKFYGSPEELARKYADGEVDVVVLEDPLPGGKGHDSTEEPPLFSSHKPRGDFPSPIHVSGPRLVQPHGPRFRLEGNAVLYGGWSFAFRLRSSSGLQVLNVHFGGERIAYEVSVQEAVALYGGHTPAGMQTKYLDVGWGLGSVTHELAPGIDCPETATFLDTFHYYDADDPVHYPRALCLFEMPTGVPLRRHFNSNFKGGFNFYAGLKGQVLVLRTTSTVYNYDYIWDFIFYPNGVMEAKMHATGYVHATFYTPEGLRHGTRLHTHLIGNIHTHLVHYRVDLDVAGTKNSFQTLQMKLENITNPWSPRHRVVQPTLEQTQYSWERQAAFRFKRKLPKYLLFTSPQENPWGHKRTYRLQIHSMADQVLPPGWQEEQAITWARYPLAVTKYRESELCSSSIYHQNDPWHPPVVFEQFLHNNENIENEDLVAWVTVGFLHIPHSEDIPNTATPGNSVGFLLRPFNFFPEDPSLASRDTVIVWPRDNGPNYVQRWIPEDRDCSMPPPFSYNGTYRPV
Summary of the method: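 Inhibition of recombinant human DAO (diamine oxidase, R&D systems) was assessed with the Amplex Red Hydrogen Peroxide Assay Kit. Hydrogen peroxide produced from 1 mM putrescine was detected through an HRP-coupled reaction that converts Amplex Red into fluorescent resorufin, read at 544 nm excitation and 590 nm emission. IC50 values came from four-parameter logistic fits in GraphPad Prism.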

[2] = target: T2, recombinant human MAO-B (monoamine oxidase-B) (Homo sapiens, UniProt P27338); assay: Activity on recombinant human MAO-B, Amplex Red method, 1 mM benzylamine substrate; conditions: 1 mM benzylamine substrate, read-out: Inhibitory Activity (IC50, nM) MAO-B
T2 construct: purchased Sigma-Aldrich
T2 sequence (P27338 1-520): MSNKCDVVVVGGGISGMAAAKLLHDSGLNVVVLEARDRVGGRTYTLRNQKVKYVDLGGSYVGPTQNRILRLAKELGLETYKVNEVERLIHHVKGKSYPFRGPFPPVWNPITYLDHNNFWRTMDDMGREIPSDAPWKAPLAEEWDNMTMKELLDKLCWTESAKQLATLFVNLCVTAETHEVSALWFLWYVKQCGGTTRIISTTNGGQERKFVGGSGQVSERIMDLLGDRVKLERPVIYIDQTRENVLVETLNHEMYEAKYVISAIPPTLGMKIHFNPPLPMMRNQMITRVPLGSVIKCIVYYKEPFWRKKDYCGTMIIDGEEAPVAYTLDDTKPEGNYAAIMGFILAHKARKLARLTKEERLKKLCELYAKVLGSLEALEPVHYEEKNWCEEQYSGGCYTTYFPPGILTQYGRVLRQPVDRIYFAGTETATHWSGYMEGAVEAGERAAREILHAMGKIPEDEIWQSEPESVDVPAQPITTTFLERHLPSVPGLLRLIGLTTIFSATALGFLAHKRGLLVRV
Summary of the method: (§1)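 Enzyme in pH 7.4 phosphate buffer; 30 min, 37° C with compound (DMSO <1%); start with 200 uM Amplex Red + 1 U/mL HRP + tyramine 0.5 mM (MAO-A) or benzylamine 1 mM (MAO-B); kinetic read ex 544/em 590, 1-2 h; % rate decrease vs DMSO control → IC50, 4-parameter fit.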

[3] = target: T3, recombinant human MAO-A (monoamine oxidase-A) (Homo sapiens, UniProt P21397); assay: Activity on recombinant human MAO-A, Amplex Red method, 0.5 mM tyramine substrate; conditions: 0.5 mM tyramine substrate, read-out: Inhibitory Activity (IC50, nM) MAO-A
T3 construct: purchased Sigma-Aldrich
T3 sequence (P21397 1-527): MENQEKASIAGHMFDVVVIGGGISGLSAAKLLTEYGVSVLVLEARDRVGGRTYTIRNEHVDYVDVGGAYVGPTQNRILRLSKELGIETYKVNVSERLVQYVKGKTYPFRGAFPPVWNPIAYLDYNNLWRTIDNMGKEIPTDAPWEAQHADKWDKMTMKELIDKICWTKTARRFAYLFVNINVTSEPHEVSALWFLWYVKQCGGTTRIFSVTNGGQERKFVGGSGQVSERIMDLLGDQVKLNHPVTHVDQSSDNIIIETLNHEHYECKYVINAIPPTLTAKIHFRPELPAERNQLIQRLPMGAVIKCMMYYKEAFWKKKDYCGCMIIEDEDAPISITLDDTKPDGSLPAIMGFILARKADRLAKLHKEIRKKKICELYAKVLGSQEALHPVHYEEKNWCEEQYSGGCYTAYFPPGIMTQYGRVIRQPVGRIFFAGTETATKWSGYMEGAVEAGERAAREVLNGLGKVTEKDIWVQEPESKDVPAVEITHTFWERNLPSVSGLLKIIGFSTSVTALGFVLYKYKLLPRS
Summary of the method: as §1

recombinant human VAP-1 = target: T4, recombinant human VAP-1 (Homo sapiens, UniProt Q16853); assay: Activity on recombinant human VAP-1, Amplex Red HRP-coupled hydrogen peroxide assay, benzylamine substrate; conditions: recombinant human VAP-1, benzylamine substrate; read-out: Inhibitory Activity (IC50, nM) human VAP-1
T4 construct: purchased R&D systems
T4 sequence (Q16853 1-763): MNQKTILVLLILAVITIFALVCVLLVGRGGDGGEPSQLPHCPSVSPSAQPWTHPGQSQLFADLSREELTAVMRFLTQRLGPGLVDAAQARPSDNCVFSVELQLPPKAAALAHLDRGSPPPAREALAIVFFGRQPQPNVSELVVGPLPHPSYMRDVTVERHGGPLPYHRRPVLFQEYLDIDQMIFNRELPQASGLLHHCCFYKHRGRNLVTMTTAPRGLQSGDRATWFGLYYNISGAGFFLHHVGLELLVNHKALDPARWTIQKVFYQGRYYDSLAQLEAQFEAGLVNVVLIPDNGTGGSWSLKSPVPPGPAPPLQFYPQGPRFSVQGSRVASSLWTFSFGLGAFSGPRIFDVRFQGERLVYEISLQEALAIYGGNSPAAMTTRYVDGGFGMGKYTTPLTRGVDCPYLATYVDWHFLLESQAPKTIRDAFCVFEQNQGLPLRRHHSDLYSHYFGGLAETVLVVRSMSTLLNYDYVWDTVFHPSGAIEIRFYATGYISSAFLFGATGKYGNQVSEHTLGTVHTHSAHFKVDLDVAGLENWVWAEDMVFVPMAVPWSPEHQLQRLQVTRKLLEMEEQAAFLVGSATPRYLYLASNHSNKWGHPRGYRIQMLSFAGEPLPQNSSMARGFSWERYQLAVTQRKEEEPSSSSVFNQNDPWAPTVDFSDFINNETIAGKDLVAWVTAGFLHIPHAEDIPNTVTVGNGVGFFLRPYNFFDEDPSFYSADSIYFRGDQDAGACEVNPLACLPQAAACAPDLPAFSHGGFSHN
Summary of the method: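 Enzyme in 50 mM sodium phosphate (pH 7.4) is exposed to test compound for 30 min at 37 °C. Benzylamine (1 mM) with HRP and Amplex Red then starts the reaction, and the fluorescence rate, relative to a DMSO-only control, gives IC50.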

| IC50 [1] [nM] | IC50 [2] [nM] | IC50 [3] [nM] | IC50 (recombinant human VAP-1) [nM] | SMILES |
| --- | --- | --- | --- | --- |
| 20 | 6100 | > 100000 | 0.2 | NC/C(=C\F)Cn1ncn(-c2cccc(C#Cc3cnc4c(c3)OCC(=O)N4)n2)c1=O [Example 255, 7-[2-[6-[1-[(E)-2-(aminomethyl)-3-fluoro-allyl]-5-oxo-1,2,4-triazol-4-yl]-2-pyridyl]ethynyl]-4H-pyrido[3,2-b][1,4]oxazin-3-one] |
| 27 | > 10000 | > 100000 | 0.3 | Cn1cncc1C#Cc1cccc(-n2cnn(C/C(=C/F)CN)c2=O)n1 [Example 256, 2-[(E)-2-(aminomethyl)-3-fluoro-allyl]-4-[6-[2-(3-methylimidazol-4-yl)ethynyl]-2-pyridyl]-1,2,4-triazol-3-one] |
| 90 | 5700 | > 100000 | 0.4 | Cn1cc(C#Cc2cccc(-n3cnn(C/C(=C/F)CN)c3=O)n2)cn1 [Example 257, 2-[(2E)-2-(aminomethyl)-3-fluoroprop-2-en-1-yl]-4-{6-[(1-methyl-1H-pyrazol-4-yl)ethynyl]pyridin-2-yl}-2,4-dihydro-3H-1,2,4-triazol-3-one hydrochloride] |
| 1.3 | 59000 | > 100000 | 0.2 | NC/C(=C\F)Cn1ncn(-c2cccc(C#Cc3cnc4c(c3)NC(=O)CO4)n2)c1=O [Example 258, 7-[2-[6-[1-[(E)-2-(aminomethyl)-3-fluoro-allyl]-5-oxo-1,2,4-triazol-4-yl]-2-pyridyl]ethynyl]-1H-pyrido[2,3-b][1,4]oxazin-2-one] |
| 29000 | > 100000 | > 100000 | 1.4 | Cc1cc(-c2ccc(N3CCNCC3)nc2)cnc1-n1cnn(C/C(=C/F)CN)c1=O [Example 259, 2-[(E)-2-(aminomethyl)-3-fluoro-allyl]-4-[3-methyl-5-(6-piperazin-1-yl-3-pyridyl)-2-pyridyl]-1,2,4-triazol-3-one] |

— patent US11492335B2, “Aryl or heteroaryl triazolone derivatives or salts thereof, or pharmaceutical compositions comprising the same” (YUHAN CORPORATION, priority 2018, dated 2022)
